Data set [1] is described as follows: Aqueous solubility of compound. Format: physicochemical. To be noted: buffer.
Data set [2] is described as follows: Chemical reactivity of compound to 13C-labelled La antigen by ALARM NMR spectroscopic analysis. Format: physicochemical.
Data set [3] can be described thus: Chemical reactivity of compound to La antigen incubated overnight by LC-MS analysis. The format is physicochemical.
Data set [4] has as its target Transient receptor potential cation channel subfamily V member 1 (Homo sapiens, UniProt Q8NER1). The data set can be described thus: Activation of human TRPV1 expressed in HEK293F cells upto 100 micromol/L. Format: cell-based. To be noted: dose <= 100.0 µmol/L.
The target in data set [5] is T1, Transient receptor potential cation channel subfamily V member 3 (Homo sapiens, UniProt Q8NET8).
T1 sequence (Q8NET8 whole entry): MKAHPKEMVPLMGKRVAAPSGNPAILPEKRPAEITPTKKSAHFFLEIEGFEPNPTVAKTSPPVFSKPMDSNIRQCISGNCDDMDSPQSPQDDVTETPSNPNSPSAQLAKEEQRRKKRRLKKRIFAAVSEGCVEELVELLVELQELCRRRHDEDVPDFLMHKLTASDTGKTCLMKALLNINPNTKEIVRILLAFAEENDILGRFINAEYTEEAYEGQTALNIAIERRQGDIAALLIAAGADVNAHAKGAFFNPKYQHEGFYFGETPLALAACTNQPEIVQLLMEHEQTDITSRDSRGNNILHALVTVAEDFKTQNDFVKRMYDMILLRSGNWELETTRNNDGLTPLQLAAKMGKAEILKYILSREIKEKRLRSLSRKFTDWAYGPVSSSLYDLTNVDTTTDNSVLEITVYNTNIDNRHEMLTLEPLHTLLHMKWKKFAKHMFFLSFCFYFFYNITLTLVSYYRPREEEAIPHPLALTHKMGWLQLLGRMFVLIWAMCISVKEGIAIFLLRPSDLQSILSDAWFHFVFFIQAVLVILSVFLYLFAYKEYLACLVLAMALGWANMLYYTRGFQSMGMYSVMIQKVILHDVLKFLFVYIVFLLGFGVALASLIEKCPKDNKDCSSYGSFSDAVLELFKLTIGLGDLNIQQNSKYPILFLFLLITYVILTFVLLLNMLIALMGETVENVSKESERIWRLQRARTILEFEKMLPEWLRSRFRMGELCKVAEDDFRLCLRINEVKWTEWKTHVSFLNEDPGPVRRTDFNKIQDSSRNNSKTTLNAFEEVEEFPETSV
The data set can be described thus: Antagonist activity at endogenous TRPV3 in human epithelial cells assessed as inhibition of 2APB-induced increase in intracellular Ca2+ level by FLIPR-based Ca2+ assay. Format: cell-based, Epithelial cell.

The target in data set [6] is Transient receptor potential cation channel subfamily M member 8 (Homo sapiens, UniProt Q7Z2W7). The data set can be described thus: Antagonist activity at human TRPM8 expressed in HEK293F cells assessed as inhibition of menthol-induced increase in intracellular Ca2+ level by FLIPR-based Ca2+ assay. The format is cell-based.
Transient receptor potential cation channel subfamily M member 8, sequence (Q7Z2W7 whole entry): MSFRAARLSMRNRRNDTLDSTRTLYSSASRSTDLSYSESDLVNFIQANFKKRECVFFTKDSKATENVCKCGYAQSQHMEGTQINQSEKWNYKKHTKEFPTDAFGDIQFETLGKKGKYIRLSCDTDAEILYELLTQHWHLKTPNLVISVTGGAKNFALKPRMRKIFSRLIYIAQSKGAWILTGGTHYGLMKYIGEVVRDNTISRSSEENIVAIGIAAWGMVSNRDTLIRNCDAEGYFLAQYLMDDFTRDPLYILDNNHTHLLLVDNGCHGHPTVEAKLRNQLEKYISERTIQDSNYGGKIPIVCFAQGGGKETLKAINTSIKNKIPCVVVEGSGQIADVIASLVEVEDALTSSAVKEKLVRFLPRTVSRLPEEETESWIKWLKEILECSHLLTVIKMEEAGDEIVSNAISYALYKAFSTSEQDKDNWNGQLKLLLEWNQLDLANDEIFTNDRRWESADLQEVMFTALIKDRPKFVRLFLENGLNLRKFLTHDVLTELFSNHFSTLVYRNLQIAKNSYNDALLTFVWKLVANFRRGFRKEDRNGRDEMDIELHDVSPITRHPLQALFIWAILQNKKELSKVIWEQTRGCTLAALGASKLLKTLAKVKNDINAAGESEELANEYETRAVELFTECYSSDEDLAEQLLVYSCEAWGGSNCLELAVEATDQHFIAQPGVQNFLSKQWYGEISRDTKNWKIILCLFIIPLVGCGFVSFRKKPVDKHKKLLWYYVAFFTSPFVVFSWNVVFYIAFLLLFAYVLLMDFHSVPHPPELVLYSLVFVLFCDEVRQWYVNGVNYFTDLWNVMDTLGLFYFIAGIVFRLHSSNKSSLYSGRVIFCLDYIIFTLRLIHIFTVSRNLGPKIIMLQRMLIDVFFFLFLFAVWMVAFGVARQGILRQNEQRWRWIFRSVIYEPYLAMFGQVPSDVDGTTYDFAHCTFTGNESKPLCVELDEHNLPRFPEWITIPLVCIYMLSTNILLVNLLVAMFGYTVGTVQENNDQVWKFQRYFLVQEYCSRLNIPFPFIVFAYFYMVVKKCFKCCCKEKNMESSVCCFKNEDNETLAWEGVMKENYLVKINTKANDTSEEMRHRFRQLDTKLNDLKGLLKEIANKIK
The target of data set [7] is T2, Transient receptor potential cation channel subfamily V member 3 (Homo sapiens) (UniProt Q8NET8).
T2 sequence (whole entry): T1 sequence (Q8NET8 whole entry)
Kind of data set: Antagonist activity at endogenous TRPV3 in human epithelial cells assessed as inhibition of 2APB-induced TRPV3 channel activation by FLIPR-based Ca2+ assay relative to control. To be noted: Epithelial cell, concentration not given here.

In data set [8] the target is Sodium-dependent dopamine transporter (Homo sapiens) (UniProt Q01959). The data set can be described thus: Inhibition of dopamine transporter (unknown origin) at 10 micromol/L by radioligand binding assay. To be noted: dose 10.0 µmol/L.
Sodium-dependent dopamine transporter (Homo sapiens), sequence (Q01959 whole entry): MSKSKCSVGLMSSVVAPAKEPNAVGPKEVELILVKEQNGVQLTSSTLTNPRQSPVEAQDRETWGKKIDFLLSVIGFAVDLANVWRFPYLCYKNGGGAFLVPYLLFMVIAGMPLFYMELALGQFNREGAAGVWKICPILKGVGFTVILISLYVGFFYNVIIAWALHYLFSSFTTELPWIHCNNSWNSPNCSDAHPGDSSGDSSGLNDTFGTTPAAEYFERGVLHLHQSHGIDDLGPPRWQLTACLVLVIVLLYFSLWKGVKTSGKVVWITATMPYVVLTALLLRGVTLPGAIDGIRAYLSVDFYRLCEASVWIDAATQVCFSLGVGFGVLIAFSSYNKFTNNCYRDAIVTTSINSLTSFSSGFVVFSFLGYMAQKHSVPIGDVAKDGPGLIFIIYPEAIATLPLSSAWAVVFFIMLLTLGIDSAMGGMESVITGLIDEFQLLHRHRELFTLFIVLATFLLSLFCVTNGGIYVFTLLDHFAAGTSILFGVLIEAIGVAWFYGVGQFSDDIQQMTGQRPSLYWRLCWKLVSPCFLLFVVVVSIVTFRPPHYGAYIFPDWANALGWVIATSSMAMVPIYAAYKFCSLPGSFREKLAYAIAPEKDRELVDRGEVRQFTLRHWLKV
In data set [9] the target is Transient receptor potential cation channel subfamily A member 1 (Rattus norvegicus) (UniProt Q6RI86). Kind of data set: Antagonist activity at endogenous TRPA1 in rat DRG neurons assessed as blockade of AITC-induced Ca2+ signals at 1 micromol/L by […] Ca2+ imaging analysis. Format: cell-based. To be noted: DRG neuron, filed as antagonist, dose 1.0 µmol/L.
Transient receptor potential cation channel subfamily A member 1 (Rattus norvegicus), sequence (Q6RI86 whole entry): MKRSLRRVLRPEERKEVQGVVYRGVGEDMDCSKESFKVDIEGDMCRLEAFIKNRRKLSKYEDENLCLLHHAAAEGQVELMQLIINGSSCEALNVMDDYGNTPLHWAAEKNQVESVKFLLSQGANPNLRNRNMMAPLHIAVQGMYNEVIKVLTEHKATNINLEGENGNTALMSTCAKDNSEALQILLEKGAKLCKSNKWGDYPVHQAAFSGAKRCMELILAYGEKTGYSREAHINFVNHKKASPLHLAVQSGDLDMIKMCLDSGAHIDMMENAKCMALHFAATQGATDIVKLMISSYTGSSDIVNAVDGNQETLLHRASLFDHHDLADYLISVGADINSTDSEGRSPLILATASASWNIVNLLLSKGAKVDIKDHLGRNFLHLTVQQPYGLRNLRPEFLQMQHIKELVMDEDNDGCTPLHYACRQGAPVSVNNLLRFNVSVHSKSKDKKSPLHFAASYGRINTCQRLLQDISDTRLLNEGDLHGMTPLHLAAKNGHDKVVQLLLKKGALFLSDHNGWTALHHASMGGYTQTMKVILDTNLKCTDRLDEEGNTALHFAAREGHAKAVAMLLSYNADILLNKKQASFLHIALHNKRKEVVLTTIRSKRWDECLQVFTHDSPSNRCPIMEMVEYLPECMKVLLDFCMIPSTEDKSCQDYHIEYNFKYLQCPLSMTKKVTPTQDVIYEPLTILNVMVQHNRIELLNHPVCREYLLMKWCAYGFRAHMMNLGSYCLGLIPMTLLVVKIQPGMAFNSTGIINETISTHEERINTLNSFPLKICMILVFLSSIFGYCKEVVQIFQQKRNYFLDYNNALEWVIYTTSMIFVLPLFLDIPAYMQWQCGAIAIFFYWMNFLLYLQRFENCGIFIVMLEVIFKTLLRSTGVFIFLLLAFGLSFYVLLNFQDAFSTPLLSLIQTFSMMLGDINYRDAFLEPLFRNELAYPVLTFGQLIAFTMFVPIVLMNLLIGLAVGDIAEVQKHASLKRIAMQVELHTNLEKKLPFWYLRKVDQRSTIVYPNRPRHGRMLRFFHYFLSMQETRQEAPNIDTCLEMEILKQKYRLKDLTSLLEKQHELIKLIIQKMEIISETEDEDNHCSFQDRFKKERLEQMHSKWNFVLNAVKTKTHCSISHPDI
The target is the same in data set [10]. Kind of data set: Antagonist activity at endogenous TRPA1 in rat DRG neurons assessed as blockade of AITC-induced CGRP release at 5 micromol/L. Format: cell-based. The conditions noted are these: DRG neuron, filed as antagonist, dose 5.0 µmol/L.
Data set [11] shares this target. Kind of data set: Antagonist activity at endogenous TRPA1 in rat DRG neurons assessed as blockade of bradykinin-induced CGRP release at 5 micromol/L. The conditions noted are these: DRG neuron, filed as antagonist, dose 5.0 µmol/L. The format is cell-based.
Data set [12] can be described thus: Cmax in rat at 2 mg/kg, po. Format: ADME, organism-based. The conditions noted are these: in vivo.
Data set [13] in a line: Half-life in rat at 2 mg/kg, po. The format is ADME, organism-based. To be noted: in vivo.
Data set [14] can be described thus: Unbound drug concentration in rat at 62.1 mg/kg, po measured after 60 mins. Format: ADME, organism-based. The conditions noted are these: in vivo, 1 h.
In data set [15] the test system is Rattus norvegicus. The data set can be described thus: Analgesic activity in AITC-induced nocifensive response Sprague-Dawley rat model assessed as prevention of mustard oil-induced flinching behavior administered orally for 1 hrs. The format is functional, organism-based. The conditions noted are these: dose 6.2-62.1 mg/kg, route po.
The subject of data set [16] is Rattus norvegicus. Kind of data set: Analgesic activity in MIA-induced osteoarthritic pain Sprague-Dawley rat model assessed as reversal of MIA-induced hind limb grip force deficit preadministered with MIA for 3 weeks followed by oral administration of compound for 1 hrs. Format: functional. To be noted: dose 6.2-62.1 mg/kg.
The nature of data set [17]: Toxicity in Sprague-Dawley rat assessed as effect on mean arterial pressure. The conditions noted are these: in vivo.

pIC50: −log10 of the molar value. Active and inactive are the calls of the source. The calls are words filed in the database; no cut-off is given here.

Transient receptor potential cation channel subfamily V member 1, sequence (Q8NER1 whole entry): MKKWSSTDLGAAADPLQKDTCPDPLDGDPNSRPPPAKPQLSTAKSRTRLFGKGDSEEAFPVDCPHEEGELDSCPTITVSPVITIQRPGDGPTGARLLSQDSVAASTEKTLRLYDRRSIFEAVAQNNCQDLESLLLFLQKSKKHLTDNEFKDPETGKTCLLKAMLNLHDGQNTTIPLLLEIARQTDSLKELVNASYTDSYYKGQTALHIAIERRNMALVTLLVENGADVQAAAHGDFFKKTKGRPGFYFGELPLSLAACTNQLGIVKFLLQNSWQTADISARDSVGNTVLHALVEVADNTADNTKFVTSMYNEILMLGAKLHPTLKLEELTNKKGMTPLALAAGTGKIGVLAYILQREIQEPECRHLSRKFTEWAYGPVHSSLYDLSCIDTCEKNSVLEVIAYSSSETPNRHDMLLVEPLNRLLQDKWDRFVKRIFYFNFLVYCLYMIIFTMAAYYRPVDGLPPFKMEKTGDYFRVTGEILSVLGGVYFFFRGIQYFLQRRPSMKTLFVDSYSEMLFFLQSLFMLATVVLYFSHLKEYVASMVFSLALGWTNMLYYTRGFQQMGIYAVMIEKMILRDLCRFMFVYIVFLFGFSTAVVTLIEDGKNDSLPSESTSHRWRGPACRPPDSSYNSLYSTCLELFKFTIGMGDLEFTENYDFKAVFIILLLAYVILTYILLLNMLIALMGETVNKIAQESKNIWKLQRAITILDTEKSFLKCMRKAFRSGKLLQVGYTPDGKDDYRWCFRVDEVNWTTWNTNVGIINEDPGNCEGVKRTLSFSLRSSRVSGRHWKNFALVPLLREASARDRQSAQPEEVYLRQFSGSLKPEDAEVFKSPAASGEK

In the case of `CCC(=N\O)/C(C)=C/c1ccc(F)cc1` [A-079], the solubility in [1] is > 300 µM. Moreover, the Stability entry in data set [2] and in data set [3] was “Stable” throughout. Moreover, the outcome in data set [4] was inactive. In addition, the pIC50 in data set [5] and in data set [6] was < 4.00 in each case. The inhibition was < 20% in data set [7] and 43% in data set [8]. The outcome in [9], in data set [10] and in [11] was Active. This compound also came in with a Cmax in [12] of 720 nM. Moreover, the half-life in data set [13] is 48.6 min. For the same compound, the “Drug uptake(free)” value in data set [14] worked out at 0.47 µmol/L. In addition, the Activity entry in [15] is “Dose-Dependent Effect”; in data set [16] it was “Dose-Dependent Effect”; in [17], “Non-Toxic”. In addition, the ED50 in data set [16] is 23.2 mg/kg.

The values are drawn from ChEMBL document CHEMBL5678803, “Selective blockade of TRPA1 channel attenuates pathological pain without altering noxious cold sensation or body temperature regulation” (Pain, 2011).
